Laboratory results taken from the NIST ThermoML archive (doi:10.1021/acs.jced.8b00302).
± gives the expanded uncertainty stated by the source.

Assay: wn = mass fraction of the nth substance listed
Conditions: 298.2 K, 100 kPa, Liquid, Gravity bottle method

mass density (w1 = 0.6463) [kg/m3] | mass density (w1 = 0.2743) [kg/m3] | mass density (w1 = 0.3365) [kg/m3] | SMILES
2016.2 ± 10 |  |  | O=S(=O)([O-])[O-].[Rb+].[Rb+] [rubidium sulfate] + O
 | 1293 ± 10 |  | O=S(=O)([O-])[O-].[Mg+2] [magnesium sulfate] + O
2016.2 ± 10 |  | 1363.1 ± 10 | O=S(=O)([O-])[O-].[Cs+].[Cs+] [cesium sulfate] + O
